In assay [1] the test system is rat CCK-A receptors on CHO-CCKR cells. Description: Indirect immunofluorescence of surface CCK receptor after agonist occupation. In kind it is cell-based, rat receptor in CHO cells. As to conditions: 10 nM CCK-8, 30 min, 37C.
For assay [2], the system named is dispersed rat pancreatic acini. As to conditions: core peptide for the probes; cited from earlier work.

In the case of “CCK-8: native cholecystokinin hormone, nonfluorescent agonist”, in assay [1], the “Surface immunolabeling of the receptor, level relative to control cells” value was determined as 49%.
Take GIy-[(NIe2S.31)CCK26-33]: in assay [2], the “Biological activity of core peptide” value is “fully biologically active”.
